The numbers were not newly measured in patent US6132722A, “Recombinant antibody-enzyme fusion proteins” (Bristol-Myers Squibb Company, priority 1998, dated 2000), which cites them from elsewhere.

The test system of the series is 3677 melanoma xenografts. The conditions noted are these: drug alone, Kerr et al. 1995.

As to `COc1cccc2c1C(=O)c1c(O)c3c(c(O)c1C2=O)C[C@@](O)(C(=O)CO)C[C@@H]3O[C@H]1C[C@H](N)[C@H](O)[C@H](C)O1` [doxorubicin], the “response of the 3677 tumor model to treatment” value was “resistant”.
